The structures appear in SMILES notation.

Among the data in patent US6008196A, “Perfluoroalkyl ketone inhibitors of elastase and processes for making the same” (Hoechst Marion Roussel, Inc., priority 1996, dated 1999) are Ki values, retold here.

This experiment deals with T1, Human Neutrophil Elastase (Homo sapiens, UniProt P08246).
T1 construct: Enzyme is purified from human sputum, although recently it has become commercially available; from tissue; host or cells: human sputum
T1 sequence (P08246 30-247 limits assumed): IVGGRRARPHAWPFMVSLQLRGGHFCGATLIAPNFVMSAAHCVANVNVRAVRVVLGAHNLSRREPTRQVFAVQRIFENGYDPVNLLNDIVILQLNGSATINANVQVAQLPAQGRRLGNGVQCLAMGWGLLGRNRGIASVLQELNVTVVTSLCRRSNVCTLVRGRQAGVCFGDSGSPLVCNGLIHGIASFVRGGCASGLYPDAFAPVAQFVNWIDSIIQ
The experiment can be described thus: Human neutrophil elastase assayed in vitro with N-MeOSuc-Ala-Ala-Pro-Val-p-nitroanilide as substrate. Type of experiment: biochemical. The note with it: enzyme purified from human sputum. On the procedure: Human neutrophil elastase is assayed in vitro using N-MeOSuc-Ala-Ala-Pro-Val-p-nitroanilide, available commercially, as substrate. […] Enzyme is purified from human sputum, although recently it has become commercially available. Kinetic characterization of immediate inhibitors is by means of the Dixon plot, whereas the characterization of slow- and/or tight-binding inhibitors used data analysis techniques reviewed by Williams and Morrison. The synthesis and analytical use of a highly sensitive and convenient substrate of elastase is described in J. Bieth, B. Spiess and C. […] For the purposes of this table, MCBz refers to 4-(4-morpholinylcarbonyl)benzoyl and Pyr refers to 3-(3-pyridyl)propanoyl.
A word on the Ki: it is a dissociation constant, usually derived from enzyme kinetics or from competition with a known ligand. `CC(C)C(NC(=O)[C@@H]1CCCN1C(=O)[C@@H](NC(=O)OC(C)(C)C)C(C)C)C(=O)C(F)(F)C(F)(F)C(F)(F)C(F)(F)F` (stereo partly drawn) [Boc--Val--Pro--Val--CF2 CF2 CF2 CF3, N-[(1,1-dimethylethoxy)carbonyl]-L-valyl-N'-[3,3,4,4,5,5,6,6,6-nonafluoro-1-(1-methylethyl)-2-oxohexyl]-L-prolinamide] showed a Ki of 590 nM.

`CC(C)C(NC(=O)[C@@H]1CCCN1C(=O)[C@@H](NC(=O)c1ccc(C(=O)N2CCOCC2)cc1)C(C)C)C(=O)C(F)(F)C(F)(F)C(F)(F)F` (stereo partly drawn) [MCBz--Val--Pro--Val--CF2 CF2 CF3, N-[4-(4-morpholinylcarbonyl)benzoyl]-L-valyl-N'-[3,3,4,4,5,5,5-heptafluoro-1-(1-methylethyl)-2-oxopentyl]-L-prolinamide] returned a Ki of 18 nM.

Regarding `CC(C)C(NC(=O)[C@@H]1CCCN1C(=O)[C@@H](NC(=O)OC(C)(C)C)C(C)C)C(=O)C(F)(F)C(F)(F)C(F)(F)F` (stereo partly drawn) [Boc--Val--Pro--Val--CF2 CF2 CF3, N-[(1,1-dimethylethoxy)carbonyl]-L-valyl-N'-[3,3,4,4,5,5,5-heptafluoro-1-(1-methylethyl)-2-oxopentyl]-L-prolinamide], the Ki is 490 nM.
